The source of these data is patent US20260265267A1, “NOVEL COMPOUNDS WITH MTORC2-INHIBITORY ACTIVITY AND USES THEREOF” (Aliad Biopharma, priority 2023, published 2026).

SMILES strings stand for the structures.

The subject of one assay is LC3-II. Put plainly: LC3-II formation as indicator of autophagy in HeLa cells (Western blot). In kind it is cell-based, human. Particulars: Homo sapiens, 9 hours, read-out: LC3-II (% control). As to the method: (§1) Specifically, HeLa cells were cultured in a 5% CO2 incubator at 37° C. in DMEM (Dulbecco's Modified Eagles Media) medium supplemented with 10% FBS, penicillin (100 unit/ml), and streptomycin (100 μg/ml). Cultivation was started by seeding 4×10^5 cells in a 100 mm culture dish, and subculture was carried out every 3 days.
(§2) Human cell line HeLa cells were seeded in a 60 mm culture dish at a density of 2×10^5 cells/plate, and cultured for 24 hours. Then, HeLa cells were treated with 70 types of compounds at a concentration of 40 μM each for 9 hours. HeLa cells were washed twice with cold 1×PBS, and then lysed with 100 μl of RIPA buffer (50 mM Tris-HCl (pH7.4), 0.25% sodium deoxycholate, 50 mM NaF, 1% NP-40, 150 mM NaCl, 1 mM β-glycerophosphate, 1 mM PMSF, 1 mM NaVO4, 1 μg/ml leupeptin, 1 μg/ml pepstatin A, 10 nM calyculin A, 10 μg/ml aprotinin, 1 mM EDTA) to hemolyze the cell membrane. Then, the lysates were centrifuged at 12,000 rpm at 4° C. for 10 minutes to collect the supernatant, which is cell lysate. Protein concentration in the cell lysate was determined using the BCA protein assay kit (Thermo Fisher Scientific), and equal amounts of protein were separated by SDS-PAGE.
(§3) Western blot analysis was performed by the following method. […] After washing the membrane three times for 5 minutes each with TBS-T buffer, it was incubated with primary antibodies diluted in TBS-T buffer containing 5% skim milk or 5% BSA overnight at 4° C. Subsequently, the membrane was washed three times for 5 minutes each with TBS-T buffer, and then incubated with secondary antibodies diluted in TBS-T buffer containing 5% skim milk at room temperature for 30 minutes. The membrane was washed five times for 5 minutes each with TBS-T buffer containing 5% skim milk, and then the protein bands bound by the secondary antibody were detected using a chemiluminescence method. The primary antibodies used were Akt (cell signaling, #4691), pAkt(S473) (Cell signaling, #4060), p70S6K (Cell signaling, #S6198), pp70S6K(T389) (cell signaling, #9205S), LC3-II (MBL, #PM036), and the secondary antibodies used were HRP conjugated anti-rabbit (Jackson immunoresearch laboratory, #711-035-152) and HRP conjugated anti-mouse IgG (Jackson immunoresearch laboratory, #515-035-072).
LC3-II formation was selected as an indicator of autophagy in HeLa cells, and the LC3-II signal obtained from Western blot analysis was normalized to the pan-Akt signal and the data were expressed as a percentage relative to the control group treated with DMSO only, which is a vehicle.

The target in the next assay is T1, mTORC2 (Homo sapiens, UniProt P42345).
T1 construct: the following experiments were conducted in HeLa cells; endogenous in cells; host or cells: HeLa
Put plainly: mTORC2 inhibitory activity in HeLa cells (Akt Ser473 phosphorylation, Western blot). In kind it is cell-based. Particulars: for selective inhibition of mTORC2: 40 μM, versus mTORC1; for selective inhibition of mTORC2 / remaining activity at 40 µM: 9 hours; for remaining activity at 40 µM: read-out: pSer473-AKT/AKT (% control); for inhibition at 40 µM: HeLa, 9 h, read-out: reduction in Akt Ser473 phosphorylation compared to the control group. As to the method: as §1, §2, §3
As an mTORC2 activity indicator in HeLa cells, the level of Akt Ser473 phosphorylation was selected as a marker, and the phosphor-Akt (Ser473) signal obtained from Western blot analysis was normalized to the pan-Akt signal, and the data were expressed as a percentage relative to the control group treated with DMSO only, which is a vehicle.
(In general: A western blot detects proteins with antibodies after separation by electrophoresis.)

Another assay deals with T2, mTORC1 (Homo sapiens, UniProt P42345).
T2 construct: the following experiments were conducted in HeLa cells; endogenous in cells; host or cells: HeLa
As to the kind of experiment: mTORC1 inhibitory activity in HeLa cells (p70S6K Thr389 phosphorylation, Western blot). In kind it is cell-based. Particulars: for remaining activity at 40 µM: 9 hours, read-out: pThr389-S6K/S6K (% control); for inhibition at 40 µM: HeLa, 9 h, read-out: reduction in p70S6K Thr389 phosphorylation compared to the control group. The procedure: as §1, §2, §3
As an mTORC1 activity indicator in HeLa cells, the level of p70S6K Thr389 phosphorylation was selected as a marker, and the level of phosphor-p70S6K (Thr389) signal measured by Western blot analysis was normalized to a level of pan-p70S6K signal, and then expressed as a percentage of the control group treated with only DMSO, which is a vehicle.

The test system of assay [1] is 5×FAD Alzheimer's disease model mice. As to the kind of experiment: Passive avoidance test in 5×FAD mice (long-term memory). In kind it is in vivo. Particulars: 5 mg/kg, 14 days / 2 weeks (FIG. 7). The procedure:
In order to evaluate the efficacy of HN2210, HN2213, and HN2313 on Alzheimer's disease-related symptoms, specifically regarding 1) memory and cognitive impairment, 2) amyloid plaques, 3) neurofibrillary tangles (NFTs), and 4) brain inflammation, an in vivo efficacy assessment of HN2210, HN2213 and HN2313 was conducted using 5×FAD Alzheimer's disease model mice. The 5×FAD mice were purchased from Jackson Lab, USA (Cat #034840-JAX) and crossed once with C57bl6 mice to produce F1 heterozygous offspring (Het). The compound was administered via intraperitoneal injection to 6-month-old 5×FAD Het mice, followed by behavioral testing. The normal control mice, which were littermates of the 5×FAD Het mice, were aged to 6 months and received DMSO injection at the same volume.
Specifically, to mice trained to avoid bright light three times daily, an electric foot shock (1 mA, 300 g) was applied for 3 seconds in a dark room at the same time on the next day. After 24 hours, the mice were placed again in the same room, and the avoidance response by light, that is, the time taken to move from the bright room to the dark room was measured. At 24 hours after habituation training, the mice were placed back into the bright room, and the latency time for entering the dark room was recorded over a period of 720 seconds.

`CS(=O)(=O)Nc1ccc2c(c1F)COc1cc3c(cc1C2=O)OCO3` [HN2302, N-(7-fluoro-11-oxo-6,11-dihydro-[1,3]dioxolo[4′,5′:4,5]benzo[1,2-b]benzo[e]oxepin-8-yl)methanesulfonamide]: the activity at 40 µM in the assay with LC3-II was determined as 108%. Further, at mTORC2, the “selective inhibition of mTORC2” value is “selectively inhibit mTORC2”, the remaining activity at 40 µM worked out at 73% and the inhibition at 40 µM was greater than 20%. Besides, the remaining activity at 40 µM on mTORC1 came to 122%.

Regarding `COc1cc2c(cc1OC)C(=O)c1cc(F)c(N3CCCCC3)cc1CC2` [HN2315, 3-fluoro-7,8-dimethoxy-2-(piperidin-1-yl)-10,11-dihydro-5H-dibenzo[a,d][7]annulen-5-one], the activity at 40 µM with LC3-II was found to be 620%. Besides, on mTORC2, the “selective inhibition of mTORC2” value is recorded as “selectively inhibit mTORC2”, the remaining activity at 40 µM stood at 28% and the inhibition at 40 µM was greater than 20%. The remaining activity at 40 µM on mTORC1 came to 223%.

Turning to `COc1cc2c(cc1OC)C(=O)c1cc(F)c(N3CCN(c4ccccc4)CC3)cc1CC2` [HN2316, 3-fluoro-7,8-dimethoxy-2-(4-phenylpiperazin-1-yl)-10,11-dihydro-5H-dibenzo[a,d][7]annulen-5-one], in the assay on LC3-II, the activity at 40 µM worked out at 256%. In addition, the remaining activity at 40 µM stood at 20% on mTORC2 and 38% on mTORC1. Further, the inhibition at 40 µM on mTORC2 and at mTORC1 was greater than 20% throughout.

Consider `O=C1c2cc3c(cc2OCc2c1ccc(NC1CC1)c2F)OCO3` [HN2318, 8-(cyclopropylamino)-7-fluoro-[1,3]dioxolo[4′,5′:4,5]benzo[1,2-b]benzo[e]oxepin-11(6H)-one], for which the activity at 40 µM with LC3-II was 227%. On mTORC2, the “selective inhibition of mTORC2” value is given as “selectively inhibit mTORC2”, the remaining activity at 40 µM is 42% and the inhibition at 40 µM was greater than 20%. The remaining activity at 40 µM at mTORC1 stood at 109%.

For `O=C1c2cc3c(cc2OCc2c1ccc(NC1CCCC1)c2F)OCO3` [HN2319, 8-(cyclopentylamino)-7-fluoro-[1,3]dioxolo[4′,5′:4,5]benzo[1,2-b]benzo[e]oxepin-11(6H)-one], the activity at 40 µM with LC3-II was 157%. Moreover, on mTORC2, the remaining activity at 40 µM was 79% and the inhibition at 40 µM is greater than 20%. On mTORC1, the remaining activity at 40 µM came to 78% and the inhibition at 40 µM is greater than 20%.

Regarding `COc1cc2c(cc1OC)C(=O)c1cc(F)c(NC3CCCC3)cc1CC2` [HN2321, 2-(cyclopentylamino)-3-fluoro-7,8-dimethoxy-10,11-dihydro-5H-dibenzo[a,d][7]annulen-5-one], the activity at 40 µM with LC3-II came to 160%. The remaining activity at 40 µM at mTORC2 was 140%. Moreover, on mTORC1, the remaining activity at 40 µM is 33% and the inhibition at 40 µM is greater than 20%.

Take `COc1cccc(CNc2cc3c(cc2F)C(=O)c2cc4c(cc2OC3)OCO4)c1` [HN2325, 9-fluoro-8-((3-methoxybenzyl)amino)-[1,3]dioxolo[4′,5′:4,5]benzo[1,2-b]benzo[e]oxepin-11(6H)-one]: in the assay on LC3-II, the activity at 40 µM worked out at 249%. In addition, at mTORC2, the remaining activity at 40 µM is 87%. Further, on mTORC1, the remaining activity at 40 µM is 44% and the inhibition at 40 µM is greater than 20%.

`COc1ccc(CNc2cc3c(cc2F)C(=O)c2cc4c(cc2OC3)OCO4)cc1` [HN2326, 9-fluoro-8-((4-methoxybenzyl)amino)-[1,3]dioxolo[4′,5′:4,5]benzo[1,2-b]benzo[e]oxepin-11(6H)-one]: the activity at 40 µM in the assay with LC3-II was 404%. In addition, at mTORC2, the “selective inhibition of mTORC2” value is “selectively inhibit mTORC2”, the remaining activity at 40 µM amounted to 69% and the inhibition at 40 µM is greater than 20%. Further, on mTORC1, the remaining activity at 40 µM was determined as 153%.

Regarding `COc1ccc(CNc2cc3c(cc2F)C(=O)c2cc4c(cc2OC3)OCO4)c(OC)c1` [HN2328, 8-((2,4-dimethoxybenzyl)amino)-9-fluoro-[1,3]dioxolo[4′,5′:4,5]benzo[1,2-b]benzo[e]oxepin-11(6H)-one], the activity at 40 µM in the assay on LC3-II is 340%. Further, on mTORC2, the “selective inhibition of mTORC2” value was “selectively inhibit mTORC2”, the remaining activity at 40 µM came out at 78% and the inhibition at 40 µM is greater than 20%. Also, the remaining activity at 40 µM on mTORC1 stood at 86%.

For the molecule `COc1ccc(CNc2cc3c(cc2F)C(=O)c2cc4c(cc2OC3)OCO4)cc1OC` [HN2329, 8-((3,4-dimethoxybenzyl)amino)-9-fluoro-[1,3]dioxolo[4′,5′:4,5]benzo[1,2-b]benzo[e]oxepin-11(6H)-one], in the assay on LC3-II, the activity at 40 µM amounted to 386%. Also, the remaining activity at 40 µM at mTORC2 was found to be 36%; on mTORC1, 57%. Moreover, the inhibition at 40 µM on mTORC2 and at mTORC1 was greater than 20% in each case.

As to `CO[C@H]1C[C@@H]2CC[C@@H](C)[C@@](O)(O2)C(=O)C(=O)N2CCCC[C@H]2C(=O)O[C@H]([C@H](C)C[C@@H]2CC[C@@H](O)[C@H](OC)C2)CC(=O)[C@H](C)/C=C(\C)[C@@H](O)[C@@H](OC)C(=O)[C@H](C)C[C@H](C)/C=C/C=C/C=C/1C` [rapamycin, reference compound], the “passive avoidance latency time, % of the normal control level” value in assay [1] was roughly 36%.
